# Test results: article PMC11882969 (Nature Communications, 2025)
# Values joined by “and” are separate entries in the source; they are usually repeats but may differ in a detail not shown here. Identical values can stand only once.
# Molecular target: hCB1 (Homo sapiens, UniProt P21554)
# Assay: bioSensAll ebBRET signaling profiling, hCB1
# Assay type: cell-based
# Parameters: host or cells: HEK293SL cells, transient PEI transfection
# hCB1, sequence (P21554 whole entry): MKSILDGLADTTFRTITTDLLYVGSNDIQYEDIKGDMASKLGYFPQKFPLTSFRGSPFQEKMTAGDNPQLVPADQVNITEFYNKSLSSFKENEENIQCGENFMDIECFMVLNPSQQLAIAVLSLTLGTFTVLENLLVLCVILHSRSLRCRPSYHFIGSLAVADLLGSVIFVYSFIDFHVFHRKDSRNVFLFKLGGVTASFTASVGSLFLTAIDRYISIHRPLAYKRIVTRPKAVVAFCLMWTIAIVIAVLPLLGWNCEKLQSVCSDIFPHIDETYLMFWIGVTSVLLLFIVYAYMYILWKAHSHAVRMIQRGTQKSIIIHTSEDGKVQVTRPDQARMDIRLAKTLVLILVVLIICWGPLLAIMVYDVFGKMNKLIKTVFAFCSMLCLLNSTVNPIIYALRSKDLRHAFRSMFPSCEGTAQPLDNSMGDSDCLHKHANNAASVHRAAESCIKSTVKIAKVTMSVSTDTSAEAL
compound,measurement,setting,value
COC(=O)C(C)(NC(=O)c1cc(C)n(-c2cccc(C(F)(F)F)c2)n1)c1cccs1 (centres unmarked) [‘4042],Gq hCB1,Log [Compound] (M) -4.22186,1205
same,Gs hCB1,Log [Compound] (M) -4.22186,6574
same,Barr2+GRK2 hCB1,Log [Compound] (M) -4.63927,82.3587 and 72.7006
same,G13 hCB1,Log [Compound] (M) -4.63927,46.7858 and 87.1754
same,G15 hCB1,Log [Compound] (M) -4.63927,108.775 and 92.8459
same,Gi1 hCB1,Log [Compound] (M) -4.63927,101.502 and 110.826 and 98.3137
same,Gi2 hCB1,Log [Compound] (M) -4.63927,122.075 and 85.154
same,GoB hCB1,Log [Compound] (M) -4.63927,110.056 and 106.901 and 98.7991
same,Gq hCB1,Log [Compound] (M) -4.63927,1175
same,Gs hCB1,Log [Compound] (M) -4.63927,6296
same,Gz hCB1,Log [Compound] (M) -4.63927,112.813 and 91.1447
same,Barr2+GRK2 hCB1,Log [Compound] (M) -5.05788,70.2312 and 47.6394
same,G15 hCB1,Log [Compound] (M) -5.05788,113.05 and 88.4535
same,Gi1 hCB1,Log [Compound] (M) -5.05788,105.528 and 109.408 and 94.1617
same,Gi2 hCB1,Log [Compound] (M) -5.05788,116.649 and 83.6719
same,GoB hCB1,Log [Compound] (M) -5.05788,115.498 and 117.852 and 92.0047
same,Gq hCB1,Log [Compound] (M) -5.05788,1109
same,Gs hCB1,Log [Compound] (M) -5.05788,6591
same,Gz hCB1,Log [Compound] (M) -5.05788,89.4695 and 99.3467
same,G13 hCB1,Log [Compound] (M) -5.47381,42.3393 and 80.0269
same,G15 hCB1,Log [Compound] (M) -5.47381,106.626 and 91.4256
same,Gi1 hCB1,Log [Compound] (M) -5.47381,102.594 and 101.052 and 96.5342
same,Gi2 hCB1,Log [Compound] (M) -5.47381,113.717 and 80.6941
same,GoB hCB1,Log [Compound] (M) -5.47381,111.936 and 119.903 and 88.1947
same,Gq hCB1,Log [Compound] (M) -5.47381,1096
same,Gs hCB1,Log [Compound] (M) -5.47381,6432
same,Gz hCB1,Log [Compound] (M) -5.47381,99.3173 and 98.4249
same,Barr2+GRK2 hCB1,Log [Compound] (M) -5.89285,78.4199 and 57.3671
same,G15 hCB1,Log [Compound] (M) -5.89285,110.351 and 94.8449
same,Gi1 hCB1,Log [Compound] (M) -5.89285,96.0236 and 103.056 and 95.3776
same,Gi2 hCB1,Log [Compound] (M) -5.89285,120.967 and 77.6348
same,GoB hCB1,Log [Compound] (M) -5.89285,107.616 and 111.235 and 93.9859
same,Gq hCB1,Log [Compound] (M) -5.89285,1179
same,Gs hCB1,Log [Compound] (M) -5.89285,6305
same,Gz hCB1,Log [Compound] (M) -5.89285,104.129 and 105.45 and 96.7384
same,Barr2+GRK2 hCB1,Log [Compound] (M) -6.31878,80.7003 and 54.8939
same,G15 hCB1,Log [Compound] (M) -6.31878,115.7 and 96.7912
same,Gi1 hCB1,Log [Compound] (M) -6.31878,96.367 and 108.992 and 101.754
same,Gi2 hCB1,Log [Compound] (M) -6.31878,121.929 and 79.8783
same,GoB hCB1,Log [Compound] (M) -6.31878,95.5518 and 109.274 and 88.1947
same,Gq hCB1,Log [Compound] (M) -6.31878,1143
same,Gs hCB1,Log [Compound] (M) -6.31878,6312
same,Gz hCB1,Log [Compound] (M) -6.31878,91.7649 and 96.1616 and 90.8724
same,Barr2+GRK2 hCB1,Log [Compound] (M) -6.72585,68.6764 and 46.9799
same,G15 hCB1,Log [Compound] (M) -6.72585,112.142 and 94.2925
same,Gi1 hCB1,Log [Compound] (M) -6.72585,106.09 and 92.9585 and 96.5936
same,Gi2 hCB1,Log [Compound] (M) -6.72585,109.48 and 81.9179
same,GoB hCB1,Log [Compound] (M) -6.72585,86.2761 and 114.112 and 87.3057
same,Gq hCB1,Log [Compound] (M) -6.72585,1077
same,Gs hCB1,Log [Compound] (M) -6.72585,6405
